Results reported in PubChem BioAssay AID256 (DTP/NCI, 2004).
Several values for one entry are separate records, joined by “and”; a condition that tells them apart may be missing. Identical values can stand only once. Toxic doses and inconclusive results are not listed.

System: CD2F1 mice, L1210 leukemia ip, survival T/C
Assay: NCI In Vivo Anticancer Drug Screen. Data for tumor model L1210 Leukemia (intraperitoneal) in CD2F1 (CDF1) mice
Conditions: higher = longer survival
Procedure, shortened: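 Vehicle-treated tumor-bearing mice served as controls (C) for compound-treated mice (T). Reported figure is T divided by C.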

[1] = endpoint: mean survival time, dose: 100.0 mg/kg/injection, schedule: Q01DX001 (ip), vehicle: saline with Tween-80
[2] = endpoint: mean survival time, dose: 200.0 mg/kg/injection, schedule: Q01DX001 (ip), vehicle: saline with Tween-80
[3] = endpoint: mean survival time, dose: 400.0 mg/kg/injection, schedule: Q01DX001 (ip), vehicle: saline with Tween-80
[4] = endpoint: mean survival time, dose: 100.0 mg/kg/injection, schedule: Q01DX009 (ip), vehicle: saline with Tween-80
[5] = endpoint: mean survival time, dose: 200.0 mg/kg/injection, schedule: Q01DX009 (ip), vehicle: saline with Tween-80
[6] = endpoint: mean survival time, dose: 200.0 mg/kg/injection, schedule: Q04DX003 (ip), vehicle: saline with Tween-80
[7] = endpoint: mean survival time, dose: 400.0 mg/kg/injection, schedule: Q04DX003 (ip), vehicle: saline with Tween-80
[8] = endpoint: mean survival time, dose: 50.0 mg/kg/injection, schedule: Q04DX003 (ip), vehicle: saline with Tween-80
[9] = endpoint: mean survival time, dose: 100.0 mg/kg/injection, schedule: Q04DX003 (ip), vehicle: saline with Tween-80
[10] = endpoint: mean survival time, dose: 25.0 mg/kg/injection, schedule: Q01DX009 (ip), vehicle: saline with Tween-80
[11] = endpoint: mean survival time, dose: 100.0 mg/kg/injection, schedule: Q04DX002 (ip), vehicle: saline with Tween-80
[12] = endpoint: mean survival time, dose: 200.0 mg/kg/injection, schedule: Q04DX002 (ip), vehicle: saline with Tween-80
[13] = endpoint: mean survival time, dose: 400.0 mg/kg/injection, schedule: Q01DX009 (ip), vehicle: saline with Tween-80

Oc1ccccc1/C=N/NC(=S)NC1CC2C=CC1C2 (stereo unspecified)
T/C (endpoint: mean survival time, dose: 12.5 mg/kg/injection, schedule: Q01DX009 (ip), vehicle: olive oil, sesame oil, peanut oil): 98 % of control | T/C (endpoint: mean survival time, dose: 25.0 mg/kg/injection, schedule: Q01DX009 (ip), vehicle: olive oil, sesame oil, peanut oil): 97 % of control | T/C (endpoint: mean survival time, dose: 50.0 mg/kg/injection, schedule: Q01DX009 (ip), vehicle: olive oil, sesame oil, peanut oil): 98 % of control | T/C (endpoint: mean survival time, dose: 100.0 mg/kg/injection, schedule: Q01DX009 (ip), vehicle: olive oil, sesame oil, peanut oil): 94 % of control | T/C (endpoint: mean survival time, dose: 200.0 mg/kg/injection, schedule: Q01DX009 (ip), vehicle: olive oil, sesame oil, peanut oil): 98 % of control | T/C (endpoint: mean survival time, dose: 400.0 mg/kg/injection, schedule: Q01DX009 (ip), vehicle: olive oil, sesame oil, peanut oil): 100 % of control

NC(CCc1ccc2c(c1)OCO2)C(=O)O (stereo unspecified)
T/C [1]: 97 % of control | T/C [2]: 100 % of control | T/C [3]: 90 % of control

CCCCCCCCCCCCCCCCOc1ccc(-c2cc(Cl)c3cc(S(=O)(=O)F)ccc3n2)cc1S(=O)(=O)F
T/C [4]: 97 % of control | T/C [5]: 98 % of control | T/C [6]: 87 % of control | T/C [7]: 95 % of control

NC1(C(=O)O)CCCC1.[Pb]
T/C (endpoint: mean survival time, dose: 100.0 mg/kg/injection, schedule: Q01DX001 (ip), vehicle: saline): 90 % of control

O=C1C=CC(=O)C(SCCC(=O)O)=C1
T/C [8]: 94 % of control | T/C [9]: 96 % of control | T/C [6]: 111 % of control

CCCCn1cnc2c(=S)nc(N)[nH]c21
T/C [10]: 162 % of control | T/C (endpoint: mean survival time, dose: 50.0 mg/kg/injection, schedule: Q01DX009 (ip), vehicle: saline with Tween-80): 171 % of control | T/C [8]: 157 % of control

Cc1nc(C)c(C#N)c(=O)[nH]1
T/C [11]: 97 % of control | T/C [12]: 97 % of control | T/C (endpoint: mean survival time, dose: 400.0 mg/kg/injection, schedule: Q04DX002 (ip), vehicle: saline with Tween-80): 97 % of control

CCN(CC)Cc1cc(Nc2ncnc3scc(C)c23)ccc1O
T/C [9]: 100 % of control | T/C [6]: 97 % of control | T/C [7]: 100 % of control

CN(C)C1C(=O)C(C(=O)NP(=O)(NCCCO)N(CCCl)CCCl)=C(O)C2(O)C(=O)C3=C(O)c4c(O)cccc4C(C)(O)C3CC12 (stereo unspecified)
T/C (endpoint: mean survival time, dose: 1.56 mg/kg/injection, schedule: Q01DX001 (ip), vehicle: saline with Tween-80): 102 % of control | T/C (endpoint: mean survival time, dose: 3.12 mg/kg/injection, schedule: Q01DX001 (ip), vehicle: saline with Tween-80): 96 % of control | T/C (endpoint: mean survival time, dose: 15.62 mg/kg/injection, schedule: Q01DX001 (ip), vehicle: saline with Tween-80): 104 % of control | T/C (endpoint: mean survival time, dose: 31.25 mg/kg/injection, schedule: Q01DX001 (ip), vehicle: saline with Tween-80): 100 % of control | T/C (endpoint: mean survival time, dose: 62.5 mg/kg/injection, schedule: Q01DX001 (ip), vehicle: saline with Tween-80): 100 % of control and 106 % of control | T/C (endpoint: mean survival time, dose: 125.0 mg/kg/injection, schedule: Q01DX001 (ip), vehicle: saline with Tween-80): 124 % of control and 100 % of control | T/C (endpoint: mean survival time, dose: 250.0 mg/kg/injection, schedule: Q01DX001 (ip), vehicle: saline with Tween-80): 122 % of control and 110 % of control | T/C (endpoint: mean survival time, dose: 500.0 mg/kg/injection, schedule: Q01DX001 (ip), vehicle: saline with Tween-80): 156 % of control | T/C (endpoint: median survival time, dose: 25.0 mg/kg/injection, schedule: Q01DX009 (ip), vehicle: saline with Tween-80): 110 % of control | T/C (endpoint: median survival time, dose: 50.0 mg/kg/injection, schedule: Q01DX009 (ip), vehicle: saline with Tween-80): 118 % of control | T/C (endpoint: median survival time, dose: 100.0 mg/kg/injection, schedule: Q01DX009 (ip), vehicle: saline with Tween-80): 157 % of control | T/C (endpoint: median survival time, dose: 200.0 mg/kg/injection, schedule: Q01DX009 (ip), vehicle: saline with Tween-80): 201 % of control and 202 % of control | T/C (endpoint: median survival time, dose: 400.0 mg/kg/injection, schedule: Q01DX009 (ip), vehicle: saline with Tween-80): 116 % of control

O=c1[nH]c(/C=C/C=C/c2ccccc2)c([N+](=O)[O-])c(=O)[nH]1
T/C (endpoint: mean survival time, dose: 50.0 mg/kg/injection, schedule: Q04DX002 (ip), vehicle: Klucel (hydroxypropylcellulose) (HPC)): 98 % of control | T/C (endpoint: mean survival time, dose: 100.0 mg/kg/injection, schedule: Q04DX002 (ip), vehicle: Klucel (hydroxypropylcellulose) (HPC)): 91 % of control and 94 % of control | T/C (endpoint: mean survival time, dose: 200.0 mg/kg/injection, schedule: Q04DX002 (ip), vehicle: Klucel (hydroxypropylcellulose) (HPC)): 88 % of control and 94 % of control | T/C (endpoint: mean survival time, dose: 400.0 mg/kg/injection, schedule: Q04DX002 (ip), vehicle: Klucel (hydroxypropylcellulose) (HPC)): 98 % of control

[Br][Pt+2][Br].[NH-]C1CCCCC1[NH-] (stereo unspecified)
T/C (endpoint: mean survival time, dose: 0.78 mg/kg/injection, schedule: Q04DX003 (ip), vehicle: saline with Tween-80): 110 % of control | T/C (endpoint: mean survival time, dose: 1.56 mg/kg/injection, schedule: Q04DX003 (ip), vehicle: saline with Tween-80): 113 % of control

NCCCN1CCN(c2ccccc2)CC1
T/C [11]: 92 % of control | T/C [12]: 92 % of control

CSC(=S)N(C)/N=C/c1ccccc1O
T/C [4]: 97 % of control | T/C [9]: 102 % of control | T/C [5]: 93 % of control | T/C [6]: 92 % of control | T/C [13]: 92 % of control | T/C [7]: 100 % of control

CC(=O)OCC1OC(OC2C(COC(C)=O)OC(Sc3ccccc3)C(OC(C)=O)C2OC(C)=O)C(OC(C)=O)C(OC(C)=O)C1OC(C)=O (stereo unspecified)
T/C (endpoint: mean survival time, dose: 0.78 mg/kg/injection, schedule: Q01DX009 (ip), vehicle: saline with Tween-80): 105 % of control | T/C (endpoint: mean survival time, dose: 1.56 mg/kg/injection, schedule: Q01DX009 (ip), vehicle: saline with Tween-80): 101 % of control | T/C (endpoint: mean survival time, dose: 3.13 mg/kg/injection, schedule: Q01DX009 (ip), vehicle: saline with Tween-80): 101 % of control | T/C [4]: 95 % of control | T/C [5]: 98 % of control | T/C [13]: 93 % of control

S=P12N3CCN1CCN2CC3
T/C (endpoint: mean survival time, dose: 7.7 mg/kg/injection, schedule: Q01DX001 (ip), vehicle: water): 101 % of control | T/C (endpoint: mean survival time, dose: 10.9 mg/kg/injection, schedule: Q01DX001 (ip), vehicle: water): 95 % of control | T/C (endpoint: mean survival time, dose: 15.7 mg/kg/injection, schedule: Q01DX001 (ip), vehicle: water): 100 % of control | T/C (endpoint: mean survival time, dose: 22.4 mg/kg/injection, schedule: Q01DX001 (ip), vehicle: water): 97 % of control | T/C (endpoint: mean survival time, dose: 32.0 mg/kg/injection, schedule: Q01DX001 (ip), vehicle: water): 100 % of control | T/C (endpoint: mean survival time, dose: 64.0 mg/kg/injection, schedule: Q01DX001 (ip), vehicle: saline): 95 % of control | T/C (endpoint: mean survival time, dose: 128.0 mg/kg/injection, schedule: Q01DX001 (ip), vehicle: saline): 98 % of control

CC(O)C(NC(=O)c1cnc(OCc2ccccc2)nc1N)C(=O)O (stereo unspecified)
T/C (endpoint: mean survival time, dose: 6.25 mg/kg/injection, schedule: Q01DX009 (ip), vehicle: saline with Tween-80): 104 % of control | T/C (endpoint: mean survival time, dose: 12.5 mg/kg/injection, schedule: Q01DX009 (ip), vehicle: saline with Tween-80): 100 % of control | T/C [10]: 104 % of control

Cc1cccn(O)c1=NC(=O)c1ccccc1
T/C [9]: 95 % of control | T/C [6]: 105 % of control | T/C [7]: 86 % of control

Cc1ccnc(N/C=C/c2cc[n+](C)cc2)c1
T/C (endpoint: mean survival time, dose: 75.0 mg/kg/injection, schedule: Q01DX001 (ip), vehicle: saline): 105 % of control | T/C (endpoint: mean survival time, dose: 150.0 mg/kg/injection, schedule: Q01DX001 (ip), vehicle: saline): 111 % of control | T/C (endpoint: mean survival time, dose: 300.0 mg/kg/injection, schedule: Q01DX001 (ip), vehicle: saline): 114 % of control

O=C(O)CCc1cccnc1
T/C [4]: 95 % of control | T/C [5]: 104 % of control | T/C [13]: 111 % of control

C=C(C)C(=O)O[C@H]1[C@H]2[C@H](OC(=O)[C@H]2C)[C@H](O)[C@@H](C)[C@@H]2C=CC(=O)[C@]21C
T/C (endpoint: mean survival time, dose: 3.13 mg/kg/injection, schedule: Q01DX009 (ip), vehicle: saline): 91 % of control | T/C (endpoint: mean survival time, dose: 6.25 mg/kg/injection, schedule: Q01DX009 (ip), vehicle: saline): 95 % of control | T/C (endpoint: mean survival time, dose: 7.5 mg/kg/injection, schedule: Q01DX009 (ip), vehicle: saline): 102 % of control | T/C (endpoint: mean survival time, dose: 12.5 mg/kg/injection, schedule: Q01DX009 (ip), vehicle: saline): 93 % of control | T/C (endpoint: mean survival time, dose: 15.0 mg/kg/injection, schedule: Q01DX009 (ip), vehicle: saline): 103 % of control | T/C (endpoint: mean survival time, dose: 25.0 mg/kg/injection, schedule: Q01DX009 (ip), vehicle: saline): 108 % of control | T/C (endpoint: mean survival time, dose: 30.0 mg/kg/injection, schedule: Q01DX009 (ip), vehicle: saline): 102 % of control

COCC1C2CCC(C2)C1COC (stereo unspecified)
T/C [1]: 104 % of control | T/C [2]: 92 % of control | T/C [3]: 97 % of control

Brc1ccc(N=Cc2ccccc2)cc1
T/C (endpoint: mean survival time, dose: 100.0 mg/kg/injection, schedule: Q04DX002 (ip), vehicle: saline): 100 % of control | T/C (endpoint: mean survival time, dose: 200.0 mg/kg/injection, schedule: Q04DX002 (ip), vehicle: saline): 103 % of control | T/C (endpoint: mean survival time, dose: 400.0 mg/kg/injection, schedule: Q04DX002 (ip), vehicle: saline): 107 % of control
